# Experimental data reported in patent US9925189B2, “Heterocyclic receptor agonists for the treatment of diabetes and metabolic disorders” (CymaBay Therapeutics, Inc., priority 2006, dated 2018).
# Target: T1, IC-GPCR2 (Homo sapiens, UniProt Q8TDV5, S309L)
# T1 construct: expressed in transfected cells
# T1 sequence (Q8TDV5 1-335 S309L): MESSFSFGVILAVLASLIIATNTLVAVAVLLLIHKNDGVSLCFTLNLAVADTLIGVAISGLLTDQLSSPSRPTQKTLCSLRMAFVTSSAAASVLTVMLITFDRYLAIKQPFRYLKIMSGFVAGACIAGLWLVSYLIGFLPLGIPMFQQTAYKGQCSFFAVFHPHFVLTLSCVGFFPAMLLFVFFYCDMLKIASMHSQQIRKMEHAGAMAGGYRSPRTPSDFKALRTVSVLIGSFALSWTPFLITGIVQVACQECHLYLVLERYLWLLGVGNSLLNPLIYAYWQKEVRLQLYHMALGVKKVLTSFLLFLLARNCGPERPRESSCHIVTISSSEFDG
# Experiment: Stimulation of cAMP in CHO cells stably expressing IC-GPCR2 (HTRF cAMP assay)
# Type: cell-based
# Settings: 0.5 h, 30 minutes, IC-GPCR2 stably expressing CHO cells, read-out: Activity at 10 uM (% change in FRET signal from DMSO control)
# In short: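 CHO cells stably expressing IC-GPCR2, plated at 17500 cells/well, treated next day for 30 min in Ham's F12 with compounds at 6–8 concentrations from 0.00003 to 10 μM; parental CHO cells also screened. Intracellular cAMP read by HTRF competitive immunoassay (665/620 nm ratio). Activity given as % FRET change from DMSO control.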
row,activation at 10 µM [%],Compound
1,62,"CC(C)(C)OC(=O)N1CCC(F)(c2nc(COc3ccc(S(C)(=O)=O)cc3)cs2)CC1 [Example 87, 4-Fluoro-4-[4-(4-methanesulfonyl-phenoxymethyl)-thiazol-2-yl]-piperidine-1-carboxylic acid tert-butyl ester]"
2,49,"CCc1cnc(N2CCC(F)(c3nc(COc4ccc(S(C)(=O)=O)cc4)cs3)CC2)nc1 [Example 88, 5-Ethyl-2-{4-fluoro-4-[4-(4-methanesulfonyl-phenoxymethyl)-thiazol-2-yl]-piperidin-1-yl}-pyrimidine]"
3,64,"CCc1cnc(N2CCC(F)(c3ncc(COc4ccc(S(C)(=O)=O)cc4)s3)CC2)nc1 [Example 90, 5-Ethyl-2-{4-fluoro-4-[5-(4-methanesulfonyl-phenoxymethyl)-thiazol-2-yl]-piperidin-1-yl}-pyrimidine]"
4,28,"CC(C)(C)OC(=O)N1CCN(c2nc(COc3ccc(S(C)(=O)=O)cc3)cs2)CC1 [Example 91, 4-[4-(4-Methanesulfonyl-phenoxymethyl)-thiazol-2-yl]-piperazine-1-carboxylic acid tert-butyl ester]"
5,14,"CC(C)CS(=O)(=O)N1CCN(c2nc(COc3ccc(S(C)(=O)=O)cc3)cs2)CC1 [Example 92, 1-[4-(4-Methanesulfonyl-phenoxymethyl)-thiazol-2-yl]-4-(2-methyl-propane-1-sulfonyl)-piperazine]"
6,48,"CC(C)(C)OC(=O)N1CCC(c2nc(CNc3ccc(F)nc3)cs2)CC1 [Example 94, 4-{4-[(6-Fluoro-pyridin-3-ylamino)-methyl]-thiazol-2-yl}-piperidine-1-carboxylic acid tert-butyl ester]"
7,63,"CC(C)c1noc(N2CCC(c3nc(COc4ccc(-n5cnnn5)cc4)cs3)CC2)n1 [Example 95, 1-(3-Isopropyl-[1,2,4]oxadiazol-5-yl)-4-[4-(4-tetrazol-1-yl-phenoxymethyl)-thiazol-2-yl]-piperidine]"
8,79,"CCc1noc(N2CCC(c3nc(COc4ccc(-n5cnnn5)cc4)cs3)CC2)n1 [Example 96, 1-(3-Ethyl-[1,2,4]oxadiazol-5-yl)-4-[4-(4-tetrazol-1-yl-phenoxymethyl)-thiazol-2-yl]-piperidine]"
9,52,"c1cc(-n2cnnn2)ccc1OCc1csc(C2CCN(c3nc(C4CC4)no3)CC2)n1 [Example 97, 1-(3-Cyclopropyl-[1,2,4]oxadiazol-5-yl)-4-[4-(4-tetrazol-1-yl-phenoxymethyl)-thiazol-2-yl]-piperidine]"
10,78,"FC(F)(F)c1noc(N2CCC(c3nc(COc4ccc(-n5cnnn5)cc4)cs3)CC2)n1 [Example 98, 4-[4-(4-Tetrazol-1-yl-phenoxymethyl)-thiazol-2-yl]-1-(3-trifluoromethyl-[1,2,4]oxadiazol-5-yl)-piperidine]"
11,67,"NC(=O)N1CCC(c2nc(COc3ccc(-n4cnnn4)cc3)cs2)CC1 [Example 99, 4-[4-(4-Tetrazol-1-yl-phenoxymethyl)-thiazol-2-yl]-piperidine-1-carboxylic acid amide]"
12,44,"CC(C)(C)OC(=O)N1CC(c2nc(COc3ccc(-n4cnnn4)cc3)cs2)C1 [Example 101, 3-[4-(4-tetrazol-1-yl-phenoxymethyl)-thiazol-2-yl]-azetidine-1-carboxylic acid tert-butyl ester]"
13,49,"CC(C)(C)OC(=O)N1CCC(c2nc(COc3ccc(-n4cnnn4)cc3)cs2)C1 (stereo not drawn) [Example 102, 3-[4-(4-Tetrazol-1-yl-phenoxymethyl)-thiazol-2-yl]-pyrrolidine-1-carboxylic acid tert-butyl ester]"
14,79,"CCc1cnc(N2CCC(c3nc(COc4ccc(-n5cnnn5)cc4)cs3)C2)nc1 (stereo not drawn) [Example 103, 5-Ethyl-2-{3-[4-(4-tetrazol-1-yl-phenoxymethyl)-thiazol-2-yl]-pyrrolidin-1-yl}-pyrimidine]"
15,76,"CC(C)(C)OC(=O)N1CCCC(c2nc(COc3ccc(-n4cnnn4)cc3)cs2)C1 (stereo not drawn) [Example 104, 3-[4-(4-Tetrazol-1-yl-phenoxymethyl)-thiazol-2-yl]-piperidine-1-carboxylic acid tert-butyl ester]"
16,52,"CCc1cnc(N2CCCC(c3nc(COc4ccc(-n5cnnn5)cc4)cs3)C2)nc1 (stereo not drawn) [Example 105, 5-Ethyl-2-{3-[4-(4-tetrazol-1-yl-phenoxymethyl)-thiazol-2-yl]-piperidin-1-yl}-pyrimidine]"
17,71,"CC(C)(C)OC(=O)N1CCC(c2nc(COCc3ccc(S(C)(=O)=O)cc3)cs2)CC1 [Example 106, 4-[4-(4-Methanesulfonyl-benzyloxymethyl)-thiazol-2-yl]-piperidine-1-carboxylic acid tert-butyl ester]"

row,activation at 10 µM [%],Compound
1,53,"Nc1cnc(N2CCC(c3nc(COc4ccc(-n5cnnn5)cc4)cs3)CC2)nc1 [Example 107, 2-{4-[4-(4-Tetrazol-1-yl-phenoxymethyl)-thiazol-2-yl]-piperidin-1-yl}-pyrimidin-5-ylamine]"
2,38,"CC(C)(C)OC(=O)N1CCC(c2nc(C(=O)Nc3ccc(-n4cnnn4)cc3)cs2)CC1 [Example 109, 4-[4-(4-Tetrazol-1-yl-phenylcarbamoyl)-thiazol-2-yl]-piperidine-1-carboxylic acid tert-butyl ester]"
3,51,"CC(C)(C)OC(=O)N1CCC(c2nc(COc3ccc(S(=O)(=O)C(F)(F)F)cc3)cs2)CC1 [Example 110, 4-[4-(4-Trifluoromethanesulfonyl-phenoxymethyl)-thiazol-2-yl]-piperidine-1-carboxylic acid tert-butyl ester]"
4,68,"CC(C)(C)OC(=O)N1CCC(c2nc(COc3ccc([S+]([O-])C(F)(F)F)cc3)cs2)CC1 (stereo not drawn) [Example 111, 4-[4-(4-Trifluoromethanesulfinyl-phenoxymethyl)-thiazol-2-yl]-piperidine-1-carboxylic acid tert-butyl ester]"
5,57,"CC(C)(C)OC(=O)N1CCC(c2nc(COc3c(F)cc(-n4cnnn4)cc3F)cs2)CC1 [Example 112, 4-[4-(2,6-Difluoro-4-tetrazol-1-yl-phenoxymethyl)-thiazol-2-yl]-piperidine-1-carboxylic acid tert-butyl ester]"
6,60,"CC(C)(C)OC(=O)N1CCC(c2nc(COc3ccc(-n4cccc4)cc3)cs2)CC1 [Example 113, 4-[4-(4-Pyrrol-1-yl-phenoxymethyl)-thiazol-2-yl]-piperidine-1-carboxylic acid tert-butyl ester]"
7,68,"CC(C)(C)OC(=O)N1CCC(c2nc(CNc3ccc(-n4cnnn4)cc3)cs2)CC1 [Example 114, 4-{4-[(4-Tetrazol-1-yl-phenylamino)-methyl]-thiazol-2-yl}-piperidine-1-carboxylic acid tert-butyl ester]"
8,67,"CCc1cnc(N2CCC(c3nc(COc4ccc(-n5cnnn5)c(Cl)c4)cs3)CC2)nc1 [Example 115, 2-{4-[4-(3-Chloro-4-tetrazol-1-yl-phenoxymethyl)-thiazol-2-yl]-piperidin-1-yl}-5-ethyl-pyrimidine]"
9,74,"CCc1cnc(N2CCC(c3nc(COc4ccc(NC=O)cc4)cs3)CC2)nc1 [Example 116, N-(4-{2-[1-(5-Ethyl-pyrimidin-2-yl)-piperidin-4-yl]-thiazol-4-ylmethoxy}-phenyl)-formamide]"
10,65,"CCc1cnc(N2CCC(c3nc(COc4ccc(NS(C)(=O)=O)cc4)cs3)CC2)nc1 [Example 117, N-(4-{2-[1-(5-Ethyl-pyrimidin-2-yl)-piperidin-4-yl]-thiazol-4-ylmethoxy}-phenyl)-methanesulfonamide]"
11,64,"Cc1cc(-n2cnnn2)ccc1OCc1csc(C2CCN(C(=O)OC(C)(C)C)CC2)n1 [Example 118, 4-[4-(2-Methyl-4-tetrazol-1-yl-phenoxymethyl)-thiazol-2-yl]-piperidine-1-carboxylic acid tert-butyl ester]"
12,53,"CCc1cnc(N2CCC(c3nc(COc4ccc(-n5cnnn5)cc4C(F)(F)F)cs3)CC2)nc1 [Example 119, 5-Ethyl-2-{4-[4-(4-tetrazol-1-yl-2-trifluoromethyl-phenoxymethyl)-thiazol-2-yl]-piperidin-1-yl}-pyrimidine]"
13,73,"CCc1cnc(N2CCC(c3nc(COc4ccc(-n5cnnn5)cc4Cl)cs3)CC2)nc1 [Example 120, 2-{4-[4-(2-Chloro-4-tetrazol-1-yl-phenoxymethyl)-thiazol-2-yl]-piperidin-1-yl}-5-ethyl-pyrimidine]"
14,75,"CC(C)(C)OC(=O)N1CCC(c2nc(COc3ccc(-n4cnnn4)cc3)co2)CC1 [Example 121, 4-[4-(4-Tetrazol-1-yl-phenoxymethyl)-oxazol-2-yl]-piperidine-1-carboxylic acid tert-butyl ester]"
15,76,"CC(C)(C)OC(=O)N1CCC(c2nc(COc3ccc(-n4cnnn4)cc3F)co2)CC1 [Example 122, 4-[4-(2-Fluoro-4-tetrazol-1-yl-phenoxymethyl)-oxazol-2-yl]-piperidine-1-carboxylic acid tert-butyl ester]"
16,72,"CCc1cnc(N2CCC(c3nc(COc4ccc(S(C)(=O)=O)cc4)co3)CC2)nc1 [Example 123, 5-Ethyl-2-{4-[4-(4-methanesulfonyl-phenoxymethyl)-oxazol-2-yl]-piperidin-1-yl}-pyrimidine]"
